What follows are compounds tested against T1, purified human HDAC6 (Homo sapiens, UniProt Q9UBN7) (assay: HDAC6 Enzyme Assay). Conditions: HDAC6 inhibition at a compound concentration of 0.412 μM; read-out: Percent Inhibition at 0.412 μM.
T1 construct: purchased BPS Bioscience 5006
T1 sequence (Q9UBN7 1-1215): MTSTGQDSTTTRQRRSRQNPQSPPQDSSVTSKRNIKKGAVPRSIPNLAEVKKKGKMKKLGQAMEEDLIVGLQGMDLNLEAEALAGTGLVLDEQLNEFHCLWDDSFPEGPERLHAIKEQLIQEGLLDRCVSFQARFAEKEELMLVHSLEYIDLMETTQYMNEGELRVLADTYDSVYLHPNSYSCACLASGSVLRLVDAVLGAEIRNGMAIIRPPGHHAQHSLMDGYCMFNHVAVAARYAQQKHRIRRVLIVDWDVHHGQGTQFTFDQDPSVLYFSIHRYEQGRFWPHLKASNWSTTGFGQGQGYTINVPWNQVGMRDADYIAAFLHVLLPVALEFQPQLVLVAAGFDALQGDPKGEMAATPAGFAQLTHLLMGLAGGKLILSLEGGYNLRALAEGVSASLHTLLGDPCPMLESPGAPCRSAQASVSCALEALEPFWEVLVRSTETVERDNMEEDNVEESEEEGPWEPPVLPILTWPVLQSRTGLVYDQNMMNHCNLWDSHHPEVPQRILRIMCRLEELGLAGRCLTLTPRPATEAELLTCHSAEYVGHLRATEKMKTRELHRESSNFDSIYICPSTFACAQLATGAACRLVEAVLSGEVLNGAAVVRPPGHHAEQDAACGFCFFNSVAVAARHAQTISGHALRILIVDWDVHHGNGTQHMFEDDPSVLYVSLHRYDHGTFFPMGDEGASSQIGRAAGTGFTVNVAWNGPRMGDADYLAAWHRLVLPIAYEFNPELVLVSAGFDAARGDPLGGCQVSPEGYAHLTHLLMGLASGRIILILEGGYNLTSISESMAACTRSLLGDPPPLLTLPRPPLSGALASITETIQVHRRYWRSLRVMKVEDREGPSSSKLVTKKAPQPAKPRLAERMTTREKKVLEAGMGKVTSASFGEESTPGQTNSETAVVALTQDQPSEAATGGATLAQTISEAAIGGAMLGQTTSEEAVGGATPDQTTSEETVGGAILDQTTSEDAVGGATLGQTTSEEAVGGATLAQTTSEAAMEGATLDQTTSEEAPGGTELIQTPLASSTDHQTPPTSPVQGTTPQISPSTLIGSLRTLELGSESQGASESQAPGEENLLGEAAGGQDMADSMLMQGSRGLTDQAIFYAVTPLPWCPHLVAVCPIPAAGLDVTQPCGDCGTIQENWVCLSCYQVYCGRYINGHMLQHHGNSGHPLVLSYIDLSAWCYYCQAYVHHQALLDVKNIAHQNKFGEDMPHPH
Type: biochemical
Protocol: To measure the inhibition of HDAC6 activity, purified human HDAC6 (BPS Bioscience; Cat. No. 5006) is incubated with substrate Ac-Arg-Gly-Lys(Ac)-AMC peptide (Bachem Biosciences; Cat. No. I-1925) for 1 hour at 30° C. in the presence of test compounds or vehicle DMSO control. The reaction is stopped with the HDAC inhibitor trichostatin A (Sigma; Cat. No. T8552) and the amount of Arg-Gly-Lys-AMC generated is quantitated by digestion with trypsin (Sigma; Cat. No. T1426) and subsequent measurement of the amount of AMC released using a fluorescent plate reader (Pherastar; BMG Technologies) set at Ex 340 nm and Em 460 nm. Concentration response curves are generated by calculating the fluorescence increase in test compound-treated samples relative to DMSO-treated controls, and enzyme inhibition (IC50) values are determined from those curves.

| inhibition at 0.412 µM | SMILES |
| --- | --- |
| 74% | O=C(NO)C1CCc2cc(Oc3ccnc(NC(=O)C4CC4)c3)ccc2C1 (stereo not shown) [Compound I-13, 6-({2-[(cyclopropylcarbonyl)amino]pyridin-4-yl}oxy)-N-hydroxy-1,2,3,4-tetrahydronaphthalene-2-carboxamide] |
| 55% | CC(C)(C#N)c1ccc(-c2ccc3c(c2)CC(C(=O)NO)CC3)cc1 (stereo not shown) [Compound I-120, 7-[4-(1-cyano-1-methylethyl)phenyl]-N-hydroxy-1,2,3,4-tetrahydronaphthalene-2-carboxamide] |
| 87% | O=C(NO)C1CCc2ccc(-c3ccc4cc[nH]c4c3)cc2C1 (stereo not shown) [Compound I-72, N-hydroxy-7-(1H-indol-6-yl)-1,2,3,4-tetrahydronaphthalene-2-carboxamide] |
| 19% | O=C(NC1CC1)c1cccc(Oc2ccc3c(c2)CC(C(=O)NO)CC3)c1 (stereo not shown) [Compound I-43, 7-{3-[(cyclopropylamino)carbonyl]phenoxy}-N-hydroxy-1,2,3,4-tetrahydronaphthalene-2-carboxamide] |
| 34% | CN(C)CCOc1ccc2c(c1)CC(C(=O)NO)CC2 (stereo not shown) [Compound I-44, 7-[2-(dimethylamino)ethoxy]-N-hydroxy-1,2,3,4-tetrahydronaphthalene-2-carboxamide] |
| 70% | O=C(NO)C1CCc2ccc(Nc3ccccc3)cc2C1 (stereo not shown) [Compound I-23, 7-anilino-N-hydroxy-1,2,3,4-tetrahydronaphthalene-2-carboxamide] |
| 58% | O=C(NO)C1CCc2ccc(OCc3ccncc3)cc2C1 (stereo not shown) [Compound I-5, N-hydroxy-7-(pyridin-4-ylmethoxy)-1,2,3,4-tetrahydronaphthalene-2-carboxamide] |
| 82% | O=C(NO)C1CCc2ccc(-c3cc4ccccc4[nH]3)cc2C1 (stereo not shown) [Compound I-54, N-hydroxy-7-(1H-indol-2-yl)-1,2,3,4-tetrahydronaphthalene-2-carboxamide] |
| 84% | CNC(=O)c1cc(F)cc(-c2ccc3c(c2)CC(C(=O)NO)CC3)c1 (stereo not shown) [Compound I-100, 7-{3-fluoro-5-[(methylamino)carbonyl]phenyl}-N-hydroxy-1,2,3,4-tetrahydronaphthalene-2-carboxamide] |
| 68% | O=C(NO)C1CCc2cc(NC(=O)C3CC3)ccc2C1 (stereo not shown) [Compound I-77, 6-[(cyclopropylcarbonyl)amino]-N-hydroxy-1,2,3,4-tetrahydronaphthalene-2-carboxamide] |
| 62% | O=C(NO)C1CCc2ccc(Oc3ccc(Cl)cc3)cc2C1 (stereo not shown) [Compound I-11, 7-(4-chlorophenoxy)-N-hydroxy-1,2,3,4-tetrahydronaphthalene-2-carboxamide] |
| 81% | O=C(NO)C1CCc2ccc(-c3ccc(N4CCCC4)nc3)cc2C1 (stereo not shown) [Compound I-97, N-hydroxy-7-(6-pyrrolidin-1-ylpyridin-3-yl)-1,2,3,4-tetrahydronaphthalene-2-carboxamide] |
| 78% | O=C(NO)C1CCc2ccc(-c3ccc([N+](=O)[O-])cc3)cc2C1 (stereo not shown) [Compound I-104, N-hydroxy-7-(4-nitrophenyl)-1,2,3,4-tetrahydronaphthalene-2-carboxamide] |
| 89% | O=C(NO)C1CCc2ccc(-c3ccc(F)c(C(=O)N4CCCC4)c3)cc2C1 (stereo not shown) [Compound I-113, 7-[4-fluoro-3-(pyrrolidin-1-ylcarbonyl)phenyl]-N-hydroxy-1,2,3,4-tetrahydronaphthalene-2-carboxamide] |
| 46% | CN(C)c1ccc2c(c1)CC(C(=O)NO)CC2 (stereo not shown) [Compound I-40, 7-(dimethylamino)-N-hydroxy-1,2,3,4-tetrahydronaphthalene-2-carboxamide] |
| 16% | CC1(C(=O)NO)CCc2ccc(Oc3ccc(Cl)cc3)cc2C1 (stereo not shown) [Compound I-124, 7-(4-Chlorophenoxy)-N-hydroxy-2-methyl-1,2,3,4-tetrahydronaphthalene-2-carboxamide] |

| inhibition at 0.412 µM | SMILES |
| --- | --- |
| 23% | O=C(NO)C1CCc2cc(Oc3cccc(Cl)c3)ccc2C1 (stereo not shown) [Compound I-19, 6-(3-chlorophenoxy)-N-hydroxy-1,2,3,4-tetrahydronaphthalene-2-carboxamide] |
| 82% | O=C(NO)C1CCc2ccc(-c3ccc(N4CCOCC4)nc3)cc2C1 (stereo not shown) [Compound I-99, N-hydroxy-7-(6-morpholin-4-ylpyridin-3-yl)-1,2,3,4-tetrahydronaphthalene-2-carboxamide] |
| 86% | CCOc1cccc(-c2ccc3c(c2)CC(C(=O)NO)CC3)c1 (stereo not shown) [Compound I-107, 7-(3-ethoxyphenyl)-N-hydroxy-1,2,3,4-tetrahydronaphthalene-2-carboxamide] |
| 82% | CC(C)Oc1ncccc1-c1ccc2c(c1)CC(C(=O)NO)CC2 (stereo not shown) [Compound I-116, N-hydroxy-7-(2-isopropoxypyridin-3-yl)-1,2,3,4-tetrahydronaphthalene-2-carboxamide] |
| 37% | O=C(NO)C1CCc2cc(Nc3ccccc3Cl)ccc2C1 (stereo not shown) [Compound I-83, 6-[(2-chlorophenyl)amino]-N-hydroxy-1,2,3,4-tetrahydronaphthalene-2-carboxamide] |
| 0% | COc1ccc2c(c1)CC(C)(C(=O)NO)CC2 (stereo not shown) [Compound I-76, N-hydroxy-7-methoxy-2-methyl-1,2,3,4-tetrahydronaphthalene-2-carboxamide] |
| 55% | CN(C)Cc1cc(C(=O)Nc2ccc3c(c2)CC(C(=O)NO)CC3)cc(C(F)(F)F)c1 (stereo not shown) [Compound I-37, 7-{[3-[(dimethylamino)methyl]-5-(trifluoromethyl)benzoyl]amino}-N-hydroxy-1,2,3,4-tetrahydronaphthalene-2-carboxamide] |
| 78% | O=C(NO)C1CCc2ccc(-c3ccccc3Cl)cc2C1 (stereo not shown) [Compound I-70, 7-(2-chlorophenyl)-N-hydroxy-1,2,3,4-tetrahydronaphthalene-2-carboxamide] |
| 79% | O=C1CCc2c(Oc3cc4c(cc3F)CCC(C(=O)NO)C4)ccnc2N1 (stereo not shown) [Compound I-31, 6-fluoro-N-hydroxy-7-[(7-oxo-5,6,7,8-tetrahydro-1,8-naphthyridin-4-yl)oxy]-1,2,3,4-tetrahydronaphthalene-2-carboxamide] |
| 57% | O=C(NO)C1CCc2ccc(NCc3cccnc3)cc2C1 (stereo not shown) [Compound I-38, N-hydroxy-7-[(pyridin-3-ylmethyl)amino]-1,2,3,4-tetrahydronaphthalene-2-carboxamide] |
| 80% | CC(=O)Nc1cccc(Oc2ccc3c(c2)CC(C(=O)NO)CC3)c1 (stereo not shown) [Compound I-21, 7-[3-(acetylamino)phenoxy]-N-hydroxy-1,2,3,4-tetrahydronaphthalene-2-carboxamide] |
| 74% | Cc1ccc(C)c(-c2ccc3c(c2)CC(C(=O)NO)CC3)c1 (stereo not shown) [Compound I-111, 7-(2,5-dimethylphenyl)-N-hydroxy-1,2,3,4-tetrahydronaphthalene-2-carboxamide] |
| 53% | O=C(NO)C1CCc2cc(Oc3ccncc3)ccc2C1 (stereo not shown) [Compound I-27, N-hydroxy-6-(pyridin-4-yloxy)-1,2,3,4-tetrahydronaphthalene-2-carboxamide] |
| 74% | O=C(NO)C1CCc2ccc(Oc3cccc(Cl)c3)cc2C1 (stereo not shown) [Compound I-9, 7-(3-chlorophenoxy)-N-hydroxy-1,2,3,4-tetrahydronaphthalene-2-carboxamide] |
| 83% | CC(C)(C)OC(=O)Nc1cccc(Oc2ccc3c(c2)CC(C(=O)NO)CC3)c1 (stereo not shown) [Compound I-53, tert-Butyl [3-({7-[(hydroxyamino)carbonyl]-5,6,7,8-tetrahydronaphthalen-2-yl}oxy)phenyl]carbamate] |
